How the values were obtained:
pancreatic islets [1] = assay: Islet function, GSIS assay (insulin secretion); type: cell-based, C57BL/6 mice; settings: 7 days; glutamine 10 mM; 16.7 mM glucose
Description: (§1) All mice within this study were treated in accordance with the guidelines approved by the Institutional Animal Care and Use Committee (IACUC) at Stanford University. Animals were housed under conventional conditions having access to food and water ad libitum. Pancreatic islets were isolated from C57BL/6 mice (male, 6-8-week-old, Charles River Laboratories, USA), as previously described.^9 In brief, the common bile duct was cannulated with a 30G needle and the pancreas distended with 3 mL of cold collagenase solution (Fischer Scientific, USA). The pancreas was removed and islets isolated by digesting the pancreas at 37° C. for 10 min. The islets were purified using histopaque-density gradients. […]
Islets supplemented with PDG-MSNPs were cultured in a humidified incubator under normal conditions (37° C./5% CO2/20% O2). After 7 days of incubation with PDG-MSNPs, the ability of islets to secrete insulin was assessed by exposing them to low glucose (i.e. basal conditions) and high glucose (i.e. stimulated conditions) media (200 μL/well). […] The supernatants were collected at the end of incubation for both basal and stimulated condition and insulin levels were quantified using a mouse insulin ELISA kit (Mercodia Developing Diagnostics, USA). […]

pancreatic islets [2] = assay: Islet viability, Live/Dead assay; type: cell-based, C57BL/6 mice; settings: day 7; glutamine 10 mM
Description: as §1
After 7 days of incubation with PDG-MSNPs, the viability of islets was assessed using Live/Dead and 3-(4,5-Dimethylthiazol-2-yl)-2,5-diphenyltetrazolium bromide (MTT) assays. Islets were labeled using fluorescein diacetate (FDA; for live cells (green fluorescence), Thermo Fisher Scientific, USA) and propidium iodide (PI; for dead cells (red fluorescence), Thermo Fisher Scientific, USA) as the Live/Dead staining solution. […] A minimum of 8 islets per experimental group were analyzed using Image-J/FIJI to quantify live and dead fluorescence within islets and the percentage of live islet were presented.

[3] = system: diabetic mice transplanted with islets; assay: Islet transplantation under kidney capsule of STZ diabetic mice, metabolic analysis; type: in vivo, C57BL/6 mice
islets = settings: reported in the literature; cited from earlier work
[4] = reported in the literature; cited from earlier work

NC(=O)CC[C@H](N)C(=O)O [Glutamine, glutamine]
insulin secretion following stimulation with high glucose medium (pancreatic islets [1]): 8.1 ± 0.3 ng/mL | islet viability (Live/Dead) (pancreatic islets [2]): 77.1±2.6% | non-fasting blood glucose level (BGL) ([3]; day 30 post-transplantation): 337 ± 84 mg/dL | AUC0-20 min of IPGTT ([3]; fasting IPGTT): 26935 ± 1347 mg·min/dL | IPGTT peak incremental value following glucose injection ([3]; fasting IPGTT, glucose 2 g/kg i.p., peak at 30 min): 238 ± 12 mg/dL | body weight ([3]; week 4): 20.7 ± 0.9 g | Cyto-protective effects on islets (islets): Yes | Decreased inflammation (islets): Yes | Enhanced islet function (islets): Yes | Enhanced islet survival (islets): Yes

CC[C@H](C)[C@H](N)C(=O)O [Isoleucine]
Maintained function of various organs [4]: No | Cyto-protective effects on islets (islets): No | Decreased inflammation (islets): No | Enhanced islet function (islets): Yes | Enhanced islet survival (islets): No

CC(C)C[C@H](N)C(=O)O [Leucine]
Cyto-protective effects on islets (islets): Yes | Decreased inflammation (islets): No | Enhanced islet function (islets): Yes | Enhanced islet survival (islets): No

N[C@@H](CCS)C(=O)O [Homocysteine]
Maintained function of various organs [4]: No | Cyto-protective effects on islets (islets): No | Decreased inflammation (islets): No | Enhanced islet function (islets): No | Enhanced islet survival (islets): No

NCCCC[C@H](N)C(=O)O [Lysine]
Maintained function of various organs [4]: No | Cyto-protective effects on islets (islets): No | Decreased inflammation (islets): No | Enhanced islet function (islets): Yes | Enhanced islet survival (islets): No

N[C@@H](CS)C(=O)O [Cysteine]
Maintained function of various organs [4]: No | Cyto-protective effects on islets (islets): Yes | Decreased inflammation (islets): No | Enhanced islet function (islets): No | Enhanced islet survival (islets): No

N[C@@H](Cc1c[nH]c2ccccc12)C(=O)O [Tryptophan]
Maintained function of various organs [4]: No | Cyto-protective effects on islets (islets): No | Decreased inflammation (islets): No | Enhanced islet function (islets): Yes | Enhanced islet survival (islets): Yes

CSCC[C@H](N)C(=O)O [Methionine]
Maintained function of various organs [4]: No | Cyto-protective effects on islets (islets): No | Decreased inflammation (islets): No | Enhanced islet function (islets): No | Enhanced islet survival (islets): No

N=C(N)NCCC[C@H](N)C(=O)O [Arginine]
Maintained function of various organs [4]: No | Cyto-protective effects on islets (islets): No | Decreased inflammation (islets): No | Enhanced islet function (islets): Yes | Enhanced islet survival (islets): No

O=C(O)[C@@H]1CCCN1 [Proline]
Maintained function of various organs [4]: No | Cyto-protective effects on islets (islets): No | Decreased inflammation (islets): No | Enhanced islet function (islets): Yes | Enhanced islet survival (islets): No

C[C@H](N)C(=O)O [Alanine]
Maintained function of various organs [4]: No | Cyto-protective effects on islets (islets): No | Decreased inflammation (islets): No | Enhanced islet function (islets): Yes | Enhanced islet survival (islets): Yes
